Active and inactive are the calls of the source. The rule behind the calls is not given here.
Target: T1, Caspase-1 (Homo sapiens) (UniProt P29466)
T1 sequence (whole entry): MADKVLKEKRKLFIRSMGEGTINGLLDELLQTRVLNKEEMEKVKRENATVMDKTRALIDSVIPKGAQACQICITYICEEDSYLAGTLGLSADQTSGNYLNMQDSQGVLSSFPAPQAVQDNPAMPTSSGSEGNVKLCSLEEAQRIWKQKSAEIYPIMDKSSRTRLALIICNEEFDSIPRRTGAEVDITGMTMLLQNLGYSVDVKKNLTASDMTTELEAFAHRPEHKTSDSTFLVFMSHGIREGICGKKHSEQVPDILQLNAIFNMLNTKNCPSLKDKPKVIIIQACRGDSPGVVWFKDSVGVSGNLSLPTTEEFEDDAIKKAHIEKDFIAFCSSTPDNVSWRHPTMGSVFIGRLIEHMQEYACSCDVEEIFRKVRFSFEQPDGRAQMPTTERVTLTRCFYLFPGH
Experiment: Inhibitory activity against IL-1 beta converting enzyme; Active

- Activity: Active
Compound: O=C[C@H](CC(=O)O)NC(=O)[C@@H]1CCCN2C(=O)CC[C@H](NC(=O)c3ccccc3)C(=O)N12
